Assay results as given in patent publication US10695406B2, “Modulation of cellular stress using a B-cell oxidative and/or endoplasmic reticulum stress inhibitor and a targeting agent” (THE UNIVERSITY OF QUEENSLAND, priority 2014, dated 2020).

Assays:
[1] = system: MIN6N8 murine β-cells; test: ER stress (ERAI reporter of Xbp1-splicing / Xbp1 splicing) in MIN6N8 β-cells; type: cell-based; parameters: % Inhibition of ER Stress (Xbp1 splicing): concentration or dose not given beside the values; details: for induction of ER stress (ERAI reporter of Xbp1-splicing): 50 ng/mL cytokines, 24 hour
Protocol: MIN6N8 cells are maintained in line with standard protocols. Cells are transfected with either the ERAI reporter plasmid (F-XBP1ΔDBD-Venus), or the ATF6-GFP plasmid (ADGENE), using LIPFECTAMINE 2000 according to the manufacturer's instructions.
On induction of ER stress, splicing of […] mRNA by IRE1a results in the translation of Venus, but not an active form of XBP1. Fluorescence was measured (excitation: 485 nm; emission: 520 nm) using the POLARstar Omega plate reader and cells were treated 48 h after transfection. The results are normalized with Gapdh expression as fold of vehicle-treated control (Con) cells.
Activation of ATF6 was assessed as follows: the area in pixels per square millimeter co-stained ATF6 and DAPI (blue and green), and total ATF6 staining (green) was determined in 5 fields of view for each section (n=6 for each condition) using IMAGEJ software version 1.45s. Data are presented as the percentage of ATF6 and DAPI co-fluorescence to the total ATF6 fluorescence. Phosphorylation of Ser-51 of eiF2 α was determined by an AlphaScreen assay as per the manufacturer's instructions (PERKIN-ELMER). The Griess reagent method was performed according to the manufacturer's instructions (MOLECULAR PROBES) to assess the intracellular levels of nitric oxide. 5-(and -6-)-carboxy-2,7-dichlorofluorescein diacetate (DCFDA) assay was used to determine the intracellular levels of H2O2 as previously described (Sakon et al., 2003). Cells were treated with glucose or recombinant cytokines at the concentrations indicated in the figure legends, or with 5 μM thapsigargin (SIGMA-ALDRICH) or 10 μg/mL tunicamycin (SIGMA-ALDRICH) or 0.1-0.5 mM Palmitate (SIGMA-ALDRICH) for the times indicated in the legends. ROS was […] using the dihydroethidium (DHE) fluorescent cell-permeable probe (SIGMA-ALDRICH). MIN6N8 cells plated at 2×10^6/mL were incubated with 3 μM DHE and subsequently treated with DMSO (control), 50 ng/mL IL-23 for 30 minutes±[…] IL-22 at the same time or 30 minutes prior to IL-23.
To inhibit transcription factors the following specific inhibitors (and concentrations) were used:
MIN6N8 cells were exposed to a panel of cytokines to determine the effect of each cytokine on ER stress. ER stress was measured using the above-described method. Specifically, the cells were exposed to either a 24 hour treatment of any one of […] glucose (hi glucose), 10 μM H2O2, 0.5 mM palmitic acid or 50 ng/mL cytokines; or a 6 hour treatment with 10 μg/mL tunicamycin or 5 μM thapsigargin.
Experiments to assess ER and/or oxidative stress, and methods of qRT-PCT and/or quantifying gene expression were performed as described for Example 1. Xbp1 splicing is assessed by qRT-PCR, with normalization versus Gapdh, and expression presented as fold of vehicle-treated control cells.

[2] = system: STAT3 phosphorylation; test: pStat3 staining in pancreatic islets vs liver, intestine and skin; type: in vivo, C57BL/6 mice; details: 30 min
Protocol: Targeting to IL-22 to pancreas: Non-obese male C57BL/6 at 6-8 weeks of age. Each IL-22-GLP-1R ligand fusion protein or hIL-22 was administered i.p. at 256 ng/g of IL-22 and the molar equivalents for the individual fusion proteins (n=3 per regimen). IL-22-ScaB1 was administered at […]. Control mice received a PBS control i.p. injection only.
To assess in vivo activation of the IL-22 receptor signaling pathway, after 30 min the mice were sacrificed and the following tissues were snap frozen and sections were prepared for each mouse: pancreas, skin (ear, tail), colon (rolled), and liver. Sections were stained by immunofluorescence for phosphorylated STAT3 using the Phospho-Stat3 (Tyr705) (D3A7) antibody.

[3] = system: Murine MIN6N8 cells; test: ERAI-sXBP1 reporter ER stress in MIN6N8 cells with 0.5 mM palmitate; type: cell-based; details: 24 hours
Protocol: Cell culture: Murine MIN6N8 cells were tested negative for mycoplasma. Cells were routinely cultured in phenol-red free DMEM (Life Technologies) containing 25 mM glucose (3.4 g/L sodium bicarbonate, 50 U/mL penicillin and streptomycin, 71.5 μM β-mercaptoethanol and 10% heat inactivated fetal bovine serum) and transferred to DMEM as above with 5.5 mM glucose 48 h prior to experimentation. Human LS174T cells were cultured in DMEM containing 10% heat-inactivated fetal bovine serum, 50 U mL^−1 penicillin and streptomycin.
ER Stress Measurement: MIN6N8 cells were transfected with the ERAI reporter plasmid (F-XBP1ΔDBD-venus, using Lipofectamine 2000 according to the manufacturer's instructions. For ERAI there was negligible fluorescence in the absence of ER stressors, but upon induction of ER stress, splicing of XBP1 mRNA by IRE1a results in the translation of Venus but not an active form of XBP1. Fluorescence was measured (excitation: 485 nm; emission: 520 nm) using a POLARstar Omega plate reader and cells were treated 48 h after transfection. […] After 24 h, ERAI-sXBP1 GFP reporter fluorescence was measured.

Molecule: N[C@@H](CCC(=O)N[C@@H](CS)C(=O)NCC(=O)O)C(=O)O [GSH, reduced glutathione]
- % Inhibition of ER Stress (Xbp1 splicing) ([1]; ER stress induced by IFNγ): 15%
- % Inhibition of ER Stress (Xbp1 splicing) ([1]; ER stress induced by IL-1β): 16%
- % Inhibition of ER Stress (Xbp1 splicing) ([1]; ER stress induced by IL-17A): 0%
- % Inhibition of ER Stress (Xbp1 splicing) ([1]; ER stress induced by IL-23): 87%
- % Inhibition of ER Stress (Xbp1 splicing) ([1]; ER stress induced by IL-24): 6%
- % Inhibition of ER Stress (Xbp1 splicing) ([1]; ER stress induced by IL-33): 13%
- % Inhibition of ER Stress (Xbp1 splicing) ([1]; ER stress induced by MIP-2α): 7%

Molecule: CNC(=N)NCCC[C@H](N)C(=O)O [L-NMMA, N^G-Methyl-L-arginine]
- % Inhibition of ER Stress (Xbp1 splicing) ([1]; ER stress induced by IFNγ): 87%
- % Inhibition of ER Stress (Xbp1 splicing) ([1]; ER stress induced by IL-1β): 93%
- % Inhibition of ER Stress (Xbp1 splicing) ([1]; ER stress induced by IL-17A): 83%
- % Inhibition of ER Stress (Xbp1 splicing) ([1]; ER stress induced by IL-23): 78%
- % Inhibition of ER Stress (Xbp1 splicing) ([1]; ER stress induced by IL-24): 92%
- % Inhibition of ER Stress (Xbp1 splicing) ([1]; ER stress induced by IL-33): 90%
- % Inhibition of ER Stress (Xbp1 splicing) ([1]; ER stress induced by MIP-2α): 95%

Molecule: IL-1β: ER stress-inducing cytokine
- induction of ER stress (ERAI reporter of Xbp1-splicing) [1]: lower stress response

Molecule: IL-17A: ER stress-inducing cytokine
- induction of ER stress (ERAI reporter of Xbp1-splicing) [1]: lower stress response

Molecule: MIP-2α: ER stress-inducing chemokine
- induction of ER stress (ERAI reporter of Xbp1-splicing) [1]: lower stress response

Molecule: superoxide dismutase [SOD1]
- % Inhibition of ER Stress (Xbp1 splicing) ([1]; ER stress induced by IFNγ): 74%
- % Inhibition of ER Stress (Xbp1 splicing) ([1]; ER stress induced by IL-1β): 96%
- % Inhibition of ER Stress (Xbp1 splicing) ([1]; ER stress induced by IL-17A): 65%
- % Inhibition of ER Stress (Xbp1 splicing) ([1]; ER stress induced by IL-23): 95%
- % Inhibition of ER Stress (Xbp1 splicing) ([1]; ER stress induced by IL-24): 59%
- % Inhibition of ER Stress (Xbp1 splicing) ([1]; ER stress induced by IL-33): 74%
- % Inhibition of ER Stress (Xbp1 splicing) ([1]; ER stress induced by MIP-2α): 88%

B1: IL-24: ER stress-inducing cytokine (protein, UniProt Q13007 52-206, looked up)
Interleukin-24: QEFHFGPCQVKGVVPQKLWEAFWAVKDTMQAQDNITSARLLQQEVLQNVSDAESCYLVHTLLEFYLKTVFKNYHNRTVEVRTLKSFSTLANNFVLIVSQLQPSQENEMFSIRDSAHRRFLLFRRAFKQLDVEAALTKALGEVDILLTWMQKFYKL
- induction of ER stress (ERAI reporter of Xbp1-splicing) [1]: potent inducers of ER stress

B2: IFN-γ: ER stress-inducing cytokine (protein, UniProt P01579 24-161, looked up)
Interferon gamma: QDPYVKEAENLKKYFNAGHSDVADNGTLFLGILKNWKEESDRKIMQSQIVSFYFKLFKNFKDDQSIQKSVETIKEDMNVKFFNSNKKKRDDFEKLTNYSVTDLNVQRKAIHELIQVMAELSPAAKTGKRKRSQMLFRG
- induction of ER stress (ERAI reporter of Xbp1-splicing) [1]: lower stress response

B3: IL-23: ER stress-inducing cytokine (protein, UniProt Q9NPF7 20-189; P29460 23-328, looked up)
Interleukin-23 subunit alpha: RAVPGGSSPAWTQCQQLSQKLCTLAWSAHPLVGHMDLREEGDEETTNDVPHIQCGDGCDPQGLRDNSQFCLQRIHQGLIFYEKLLGSDIFTGEPSLLPDSPVGQLHASLLGLSQLLQPEGHHWETQQIPSLSPSQPWQRLLLRFKILRSLQAFVAVAARVFAHGAATLSP
Interleukin-12 subunit beta: IWELKKDVYVVELDWYPDAPGEMVVLTCDTPEEDGITWTLDQSSEVLGSGKTLTIQVKEFGDAGQYTCHKGGEVLSHSLLLLHKKEDGIWSTDILKDQKEPKNKTFLRCEAKNYSGRFTCWWLTTISTDLTFSVKSSRGSSDPQGVTCGAATLSAERVRGDNKEYEYSVECQEDSACPAAEESLPIEVMVDAVHKLKYENYTSSFFIRDIIKPDPPKNLQLKPLKNSRQVEVSWEYPDTWSTPHSYFSLTFCVQVQGKSKREKKDRVFTDKTSATVICRKNASISVRAQDRYYSSSWSEWASVPCS
- induction of ER stress (ERAI reporter of Xbp1-splicing) [1]: potent inducers of ER stress

B4: IL-33: ER stress-inducing cytokine (protein, UniProt O95760 1-270, looked up)
Interleukin-33: MKPKMKYSTNKISTAKWKNTASKALCFKLGKSQQKAKEVCPMYFMKLRSGLMIKKEACYFRRETTKRPSLKTGRKHKRHLVLAACQQQSTVECFAFGISGVQKYTRALHDSSITGISPITEYLASLSTYNDQSITFALEDESYEIYVEDLKKDEKKDKVLLSYYESQHPSNESGDGVDGKMLMVTLSPTKDFWLHANNKEHSVELHKCEKPLPDQAFFVLHNMHSNCVSFECKTDPGVFIGVKDNHLALIKVDSSENLCTENILFKLSET
- induction of ER stress (ERAI reporter of Xbp1-splicing) [1]: potent inducers of ER stress

B5: IL-10: cytokine that inhibits ER stress (protein, UniProt P22301 19-178, looked up)
Interleukin-10: SPGQGTQSENSCTHFPGNLPNMLRDLRDAFSRVKTFFQMKDQLDNLLLKESLLEDFKGYLGCQALSEMIQFYLEEVMPQAENQDPDIKAHVNSLGENLKTLRLRLRRCHRFLPCENKSKAVEQVKNAFNKLQEKGIYKAMSEFDIFINYIEAYMTMKIRN
- inhibition of ER stress initiated by cytokines or tunicamycin ([1]; pair-wise combinations of cytokines): inhibit ER stress

B6: IL-22-ScaB1: IL-22-single chain antibody construct targeting a β-cell antigen; scFv-cytokine fusion protein with His- and myc-tag (protein)
chain: HHHHHHEVQLLESGGGLVQPGGSLRLSCAASGFTFSSYAMSWVRQAPGKGLEWVSSITAEGTHTWYADSVKGRFTISRDNSKNTLYLQMNSLRAEDTAVYYCAKTSYRFDYWGQGTLVTVSSGGGGSGGGGSGGGGSDIQMTQSPSSLSASVGDRVTITCRASQSISSYLNWYQQKPGKAPKLLIYKASRLQSGVPSRFSGSGSGTDFTLTISSLQPEDFATYYCQQKWDPPRTFGQGTKVEIKRSGGGGSAPISSHCRLDKSNFQQPYITNRTFMLAKEASLADNNTDVRLIGEKLFHGVSMSERCYLMKQVLNFTLEEVLFPQSDRFQPYMQEVVPFLARLSNRLSTCHIEGDDLHIQRNVQKLKDTVKKLGESGEIKAIGELDLLFMSLRNACIEQKLISEEDLN
modifications: His-ScaB1 scFv-IL22 human-myc
notes: IL-22-single chain antibody construct targeting a β-cell antigen; scFv-cytokine fusion protein with His- and myc-tag
- pStat3 ratio pancreatic islets vs liver, skin or intestine relative to human IL-22 ([2]; 0.96 nmoles/g): not greater than for native human IL-22
- pStat3 ratio pancreatic islets vs intestine, fold change relative to human IL-22 ([2]; 15.4 nmoles/g): 420 fold
- pStat3 ratio pancreatic islets vs liver, fold change relative to human IL-22 ([2]; 15.4 nmoles/g): 120 fold
- pStat3 ratio pancreatic islets vs skin, fold change relative to human IL-22 ([2]; 15.4 nmoles/g): 110 fold
- ER stress caused by the protein alone ([3]; 15.4 nM, no palmitate): did not cause ER stress
- potency compared to the native human IL-22 in reducing ER stress ([3]; 0.5 mM palmitate): < 50%
- protection from palmitate-induced ER stress ([3]; co-treated with 0.5 mM palmitate, increasing concentrations): reduced ER stress induced by palmitate
